From patent publication US6599938B1, “Compounds having MIF antagonist activity” (The Picower Institute of Medical Research, priority 1999, dated 2003)
Where “and” joins values, the source holds several entries; their conditions need not be identical. Identical values can stand only once. Entries after “also recorded” stand apart in the source; their conditions may differ. Like-named read-outs stand apart in the source and are kept apart here. Blank lines part the entries; values can stand above or below the compound they belong to.

Columns and labels:
MIF = molecular target: T1, MIF (Homo sapiens, UniProt P14174); assay: MIF dopachrome tautomerase assay; type: biochemical; conditions: for IC50: MIF tautomerase activity, L-dopachrome methyl ester substrate; for MIF antagonist activity: D amino acid compounds compared with compounds 8-10
T1 sequence (P14174 2-115 limits assumed): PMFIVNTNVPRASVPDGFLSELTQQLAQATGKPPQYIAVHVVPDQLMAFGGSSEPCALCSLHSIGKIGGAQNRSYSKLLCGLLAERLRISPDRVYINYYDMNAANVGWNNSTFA

[1] = tested on: quiescent NIH/3T3 fibroblasts; assay: Inhibition of MIF-dependent serum-induced proliferation of quiescent NIH/3T3 fibroblasts; type: cell-based; conditions: for MIF inhibitory activity (inhibition of MIF induced proliferation in quiescent NIH/3T3 cell cultures): NIH/3T3 cell proliferation assay
[2] = tested on: primary murine embryonic fibroblasts; assay: Neutralization of rMIF rescue from serum-withdrawal apoptosis; type: cell-based; conditions: serum-free + rMIF 50 ng/ml; for neutralizing MIF-mediated protection from apoptosis (persistence of apoptosis despite rMIF): FIG. 2, test compound 1 or 10 μM, compared with anti-MIF mAb
Excerpt: FIG. 2 compares the activity of MIF antagonist agents of the present invention (and more particularly compounds according to Formula I) to neutralize the MIF-mediated protection from apoptosis induced in cultured murine embryonic fibroblasts, which apoptotic response (cell death) is initiated by withdrawal of serum. In this assay, withdrawal of serum initiates an apoptotic response, but the cells can be rescued by addition of recombinant MIF (rMIF) to the culture medium. […] This antagonistic effect on MIF bioactivity in vitro is predictive of clinical utility of the active MIF antagonist agent.
In the illustrative experiments, cultured embryonic fibroblasts are induced to enter apoptosis (cell death) as a result of serum withdrawal. These cultures can be “rescued” by treatment with MIF. Thus, test compounds are conveniently assayed for MIF antagonist activity by reference to the activity of the compounds to neutralize the effect of added MIF in the apoptosis assay; that is, by the persistence of apoptosis (cell death) in serum-free culture conditions despite the addition of MIF. In this regard, anti-MIF antibodies are known to antagonize MIF and serve as a convenient positive control.
Briefly, primary murine embryonic fibroblasts are distributed into 6-well cell culture plates at 2×10^5 cells/well. Cells are subsequently cultured overnight under standard conditions in 10% serum-containing medium (+serum) or in serum-free medium (+serum-free) in the absence or presence of recombinant human MIF (rMIF) at 50 ng/ml. […] Cell lysates are analyzed for apoptosis by any of a variety of convenient methods, such as ELISA for fragmented DNA. Results shown are the mean+/−SD of duplicate samples and are representative of replicated experiments.

IC50 (MIF; read-out: Inhibition (IC50)): > 100 µM
SMILES: COC(=O)CN=Cc1ccc(O)cc1 [compound 1]

IC50 (MIF; read-out: Inhibition (IC50)): ~50 µM and 50 µM
SMILES: COC(=O)[C@H](Cc1ccccc1)N=Cc1ccc(O)cc1 [compound 8, L-PheME/parahydroxybenzaldehyde Schiff base]
MIF inhibitory activity (inhibition of MIF induced proliferation in quiescent NIH/3T3 cell cultures) [1]: Neither compound 8 (corresponding to L-PheME/parahydroxybenzaldehyde Schiff base) nor compound 10b (corresponding to D-TrpME/parahydroxybenzaldehyde Schiff base) exhibited anti-MIF biological activity

SMILES: COC(=O)[C@@H](Cc1ccccc1)N=Cc1ccc(O)cc1 [compound 8b]
MIF antagonist activity (MIF): significantly less MIF antagonist activity

IC50 (MIF; read-out: Inhibition (IC50)): ~10 µM and 10 µM
SMILES: COC(=O)[C@H](Cc1ccc(O)cc1)N=Cc1ccc(O)cc1 [compound 9, L-TyrME/parahydroxybenzaldehyde Schiff base]
MIF inhibitory activity (inhibition of MIF induced proliferation in quiescent NIH/3T3 cell cultures) [1]: exhibited MIF inhibitory activity

SMILES: COC(=O)[C@H](Cc1c[nH]c2ccccc12)N=Cc1ccc(O)cc1 [compound 10]
antagonism of the bioactivity of MIF in apoptosis assay ([2]; 10 μM): significantly antagonizes the bioactivity of MIF
neutralizing MIF-mediated protection from apoptosis (persistence of apoptosis despite rMIF) [2]: as effective an MIF antagonist agent as is a neutralizing anti-MIF monoclonal antibody; also recorded: as effective as a monoclonal anit-MIF antibody treatment at neutralizing rMIF; also recorded: dose-related effect
suppression of serum-induced cell proliferation ([1]; FIG. 1, 10 μM, 10% serum, [3H]-thymidine incorporation, compared with anti-MIF mAb 100 μg/ml): as effective an MIF antagonist as a neutralizing anti-MIF monoclonal antibody
MIF inhibitory activity (inhibition of MIF induced proliferation in quiescent NIH/3T3 cell cultures) [1]: exhibited MIF inhibitory activity

SMILES: COC(=O)[C@@H](Cc1c[nH]c2ccccc12)N=Cc1ccc(O)cc1 [compound 10b, D-tryptophan/para-hydroxybenzaldehyde Schiff base]
MIF antagonist activity (MIF): significantly less MIF antagonist activity
neutralizing MIF-mediated protection from apoptosis (persistence of apoptosis despite rMIF) [2]: but not compound 10b (D-tryptophan/para-hydroxybenzaldehyde Schiff base), was as effective as a monoclonal anit-MIF antibody treatment at neutralizing rMIF

IC50 (MIF; read-out: Inhibition IC50): > 100 µM
SMILES: COC(=O)C(Cc1ccc(O)cc1)N=Cc1ccccc1O (centres unmarked) [compound 18]

IC50 (MIF; read-out: Inhibition IC50): > 100 µM
SMILES: COC(=O)C(Cc1ccc(O)cc1)N=Cc1cccc(O)c1O (centres unmarked) [compound 20]

IC50 (MIF; read-out: Inhibition IC50): > 100 µM
SMILES: COC(=O)C(Cc1ccc(O)cc1)N=Cc1ccc(O)c(O)c1 (centres unmarked) [compound 21]

IC50 (MIF; read-out: Inhibition IC50): > 100 µM
SMILES: COC(=O)[C@H](Cc1ccc(O)cc1)N=Cc1ccc(F)cc1 [compound 24]

IC50 (MIF; read-out: Inhibition IC50): > 100 µM
SMILES: COC(=O)[C@H](Cc1c[nH]c2ccccc12)N=Cc1ccc(F)cc1 [compound 29]
